What was measured:
[1] = target: histamine receptor H1 (Homo sapiens, UniProt P35367); assay: Histamine H1 radioligand binding ([3H]Pyrilamine); settings: read-out: Histamine Binding (1 μM) H1, percent inhibition of specific binding, 1 μM
In short: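 Values are percent inhibition of specific [3H]pyrilamine (1.2 nM) binding with compounds at ≤1 μM (1% DMSO vehicle); 180 min incubation at 25 °C, pH 7.4 Tris buffer, on CHO-expressed human H1 receptor; 1 μM pyrilamine defined nonspecific binding, bound ligand counted after filtration.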

[2] = target: T1, human recombinant serotonin (5-Hydroxytryptamine) 5-HT6 receptor (Homo sapiens, UniProt P50406); assay: Serotonin 5-HT6 radioligand binding ([3H]LSD); settings: compound at 1 μM; read-out: Inhibition of ligand binding, Serotonin 5-HT6 (percent inhibition of specific binding)
T1 construct: expressed in transfected cells; host or cells: human HeLa cells
Experimental: Compounds of the invention were incubated with 1.5 nM [3H]Lysergic acid diethylamide (LSD) for 120 min. at 37° C. […] Receptor proteins were filtered and washed, the filters were then counted to determine [3H]LSD specifically bound. Compounds were screened at 1 μM or lower, using 1% DMSO as vehicle. Biochemical assay results are presented as the percent inhibition of specific binding in Table 10.

[3] = target: human dopamine D2L receptor (Homo sapiens, UniProt P14416); assay: Dopamine D2L radioligand binding ([3H]Spiperone); settings: percent inhibition of specific binding; compound at 1 μM; read-out: Inhibition of ligand binding, Dopamine D2L
Description: Non-specific binding was estimated in the presence of […] Haloperidol. Receptor proteins were filtered and washed, the filters were then counted to determine [^3H]Spiperone specifically bound. […] Biochemical assay results are presented as the percent inhibition of specific binding in Table 9.

[4] = target: T2, human recombinant histamine H2 receptor (Homo sapiens, UniProt P25021); assay: Histamine H2 radioligand binding ([125I]Aminopotentidine); settings: read-out: Histamine Binding (1 μM) H2, percent inhibition of specific binding, 1 μM
T2 construct: expressed in transfected cells; host or cells: Chinese hamster ovary (CHO) K1 cells
In short: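 Receptor source: human recombinant H2 in CHO-K1 cells, assayed in 50 mM phosphate pH 7.4. Competition against 0.1 nM [125I]aminopotentidine, 120 min, 25 °C; 3 μM tiotidine sets nonspecific binding, filter-bound counts give specific binding.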

[5] = target: T3, human recombinant serotonin (5-Hydroxytryptamine) 5-HT2C receptor (Homo sapiens, UniProt P28335); assay: Serotonin 5-HT2C radioligand binding ([3H]Mesulergine); settings: compound at 1 μM; read-out: Inhibition of ligand binding, Serotonin 5-HT2C (percent inhibition of specific binding)
T3 construct: expressed in transfected cells; host or cells: Chinese hamster ovary (CHO-K1) cells
T3 sequence (P28335 33-458): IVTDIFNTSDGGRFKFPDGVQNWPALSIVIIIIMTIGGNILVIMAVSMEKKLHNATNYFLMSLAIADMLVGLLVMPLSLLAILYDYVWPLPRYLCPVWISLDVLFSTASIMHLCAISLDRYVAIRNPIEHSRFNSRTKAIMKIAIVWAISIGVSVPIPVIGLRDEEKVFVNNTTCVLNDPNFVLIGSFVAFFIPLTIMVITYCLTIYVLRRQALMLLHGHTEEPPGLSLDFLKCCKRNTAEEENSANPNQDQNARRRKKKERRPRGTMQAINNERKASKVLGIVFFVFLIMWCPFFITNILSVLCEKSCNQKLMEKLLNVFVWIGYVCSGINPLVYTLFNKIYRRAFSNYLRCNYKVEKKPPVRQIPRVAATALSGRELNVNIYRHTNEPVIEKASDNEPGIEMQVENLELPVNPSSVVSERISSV
In short: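 Compounds tested at 1 μM or lower (1% DMSO vehicle) for displacement of 1 nM [3H]Mesulergine over 60 min at 25° C. Specific binding determined by filtration counting, with 1 μM Mianserin defining non-specific binding; values are percent inhibition.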

[6] = target: T4, human recombinant serotonin (5-Hydroxytryptamine) 5-HT2A receptor (Homo sapiens, UniProt P28223); assay: Serotonin 5-HT2A radioligand binding ([3H]Ketanserin); settings: read-out: Inhibition of ligand binding, Serotonin 5-HT2A (percent inhibition of specific binding), compound at 1 μM
T4 construct: expressed in transfected cells; host or cells: Chinese hamster ovary (CHO-K1) cells
Experimental: Compounds of the invention were incubated with 0.5 nM [^3H]Ketanserin for 60 min. at 25° C. Non-specific binding was estimated in the presence of 1 μM Mianserin. Receptor proteins were filtered and washed, the filters were then counted to determine [^3H]Ketanserin specifically bound.

[7] = target: human recombinant serotonin (5-Hydroxytryptamine) 5-HT7 receptor (Homo sapiens, UniProt P34969); assay: Serotonin 5-HT7 radioligand binding ([3H]LSD); settings: compound at 1 μM; read-out: Inhibition of ligand binding, Serotonin 5-HT7 (percent inhibition of specific binding)
Description: Receptor proteins were filtered and washed, the filters were then counted to determine [^3H]LSD specifically bound.

T2 sequence (P25021 whole entry): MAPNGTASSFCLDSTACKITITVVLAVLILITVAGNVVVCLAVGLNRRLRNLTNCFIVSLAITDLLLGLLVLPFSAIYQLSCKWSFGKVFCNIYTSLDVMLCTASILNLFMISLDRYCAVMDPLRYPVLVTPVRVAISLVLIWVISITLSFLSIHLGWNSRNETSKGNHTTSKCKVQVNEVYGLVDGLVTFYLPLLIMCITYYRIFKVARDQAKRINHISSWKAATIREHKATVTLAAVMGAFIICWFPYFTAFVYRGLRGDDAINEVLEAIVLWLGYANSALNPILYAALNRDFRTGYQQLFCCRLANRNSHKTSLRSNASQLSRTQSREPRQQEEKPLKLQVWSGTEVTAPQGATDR
T4 sequence (P28223 whole entry): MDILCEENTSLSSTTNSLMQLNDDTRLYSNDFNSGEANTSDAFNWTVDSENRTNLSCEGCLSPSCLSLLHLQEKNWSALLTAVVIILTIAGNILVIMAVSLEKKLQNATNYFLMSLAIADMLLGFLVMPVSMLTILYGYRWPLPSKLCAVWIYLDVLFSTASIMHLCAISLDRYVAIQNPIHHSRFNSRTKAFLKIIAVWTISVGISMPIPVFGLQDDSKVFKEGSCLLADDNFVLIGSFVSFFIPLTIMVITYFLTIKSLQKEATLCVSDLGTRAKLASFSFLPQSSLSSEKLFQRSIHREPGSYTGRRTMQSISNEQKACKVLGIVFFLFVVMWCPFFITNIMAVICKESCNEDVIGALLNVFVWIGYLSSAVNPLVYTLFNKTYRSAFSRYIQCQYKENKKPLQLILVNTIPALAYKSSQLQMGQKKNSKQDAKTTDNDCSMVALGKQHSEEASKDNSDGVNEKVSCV
Sequence of histamine receptor H1 (P35367 whole entry): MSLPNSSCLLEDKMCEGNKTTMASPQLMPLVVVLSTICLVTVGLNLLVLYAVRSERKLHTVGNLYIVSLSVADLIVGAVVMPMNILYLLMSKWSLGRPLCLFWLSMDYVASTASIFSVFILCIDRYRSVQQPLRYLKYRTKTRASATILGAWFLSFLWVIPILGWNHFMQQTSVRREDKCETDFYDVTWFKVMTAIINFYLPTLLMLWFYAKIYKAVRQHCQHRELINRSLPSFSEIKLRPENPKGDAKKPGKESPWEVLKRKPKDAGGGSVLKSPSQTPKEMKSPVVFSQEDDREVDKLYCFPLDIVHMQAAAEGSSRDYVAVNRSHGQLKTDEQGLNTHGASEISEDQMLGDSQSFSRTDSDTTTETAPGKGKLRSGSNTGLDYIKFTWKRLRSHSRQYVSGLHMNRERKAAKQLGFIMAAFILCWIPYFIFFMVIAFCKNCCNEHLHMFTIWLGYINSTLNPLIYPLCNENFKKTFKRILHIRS
T1 sequence (P50406 whole entry): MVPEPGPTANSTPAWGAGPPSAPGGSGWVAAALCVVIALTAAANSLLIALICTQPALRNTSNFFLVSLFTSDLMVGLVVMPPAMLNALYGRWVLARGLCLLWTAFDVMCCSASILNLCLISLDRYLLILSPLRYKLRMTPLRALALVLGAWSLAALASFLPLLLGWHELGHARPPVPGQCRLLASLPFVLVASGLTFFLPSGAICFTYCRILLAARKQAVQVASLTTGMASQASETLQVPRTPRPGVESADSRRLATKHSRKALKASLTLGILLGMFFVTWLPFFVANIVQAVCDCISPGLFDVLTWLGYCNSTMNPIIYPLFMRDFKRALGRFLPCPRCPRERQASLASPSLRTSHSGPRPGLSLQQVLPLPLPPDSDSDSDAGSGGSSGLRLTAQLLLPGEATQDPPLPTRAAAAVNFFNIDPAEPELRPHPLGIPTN
Sequence of human recombinant serotonin (5-Hydroxytryptamine) 5-HT7 receptor (P34969 whole entry): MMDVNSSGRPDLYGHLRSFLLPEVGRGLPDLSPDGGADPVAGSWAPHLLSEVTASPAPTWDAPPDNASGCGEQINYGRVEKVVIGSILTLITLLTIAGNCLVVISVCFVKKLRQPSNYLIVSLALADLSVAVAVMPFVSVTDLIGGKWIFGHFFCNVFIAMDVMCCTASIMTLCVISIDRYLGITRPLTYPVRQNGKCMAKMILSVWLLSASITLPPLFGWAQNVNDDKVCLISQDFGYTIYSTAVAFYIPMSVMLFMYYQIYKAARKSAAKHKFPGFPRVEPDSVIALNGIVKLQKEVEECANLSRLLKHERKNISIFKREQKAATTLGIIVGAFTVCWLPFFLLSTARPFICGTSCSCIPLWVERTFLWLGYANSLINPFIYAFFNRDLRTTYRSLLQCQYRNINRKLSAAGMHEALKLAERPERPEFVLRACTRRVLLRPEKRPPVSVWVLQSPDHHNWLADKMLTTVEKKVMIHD
Sequence of human dopamine D2L receptor (P14416 whole entry): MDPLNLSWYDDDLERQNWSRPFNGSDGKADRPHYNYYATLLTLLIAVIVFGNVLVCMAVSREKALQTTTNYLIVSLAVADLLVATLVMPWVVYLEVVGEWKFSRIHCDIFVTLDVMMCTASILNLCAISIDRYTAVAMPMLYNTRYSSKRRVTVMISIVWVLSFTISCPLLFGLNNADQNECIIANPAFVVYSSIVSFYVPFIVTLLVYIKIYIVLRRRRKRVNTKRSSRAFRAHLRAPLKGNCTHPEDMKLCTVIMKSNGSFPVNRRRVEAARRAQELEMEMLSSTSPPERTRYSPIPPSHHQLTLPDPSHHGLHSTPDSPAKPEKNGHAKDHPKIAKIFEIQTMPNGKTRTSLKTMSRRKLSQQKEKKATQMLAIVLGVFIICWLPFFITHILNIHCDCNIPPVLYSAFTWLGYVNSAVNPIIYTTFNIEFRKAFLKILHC

`C/C(=C/n1c2c(c3cc(Cl)ccc31)CN(C)CC2)c1cccc(F)c1` [Compound 233, (Z)-8-chloro-5-(2-(3-fluorophenyl)prop-1-enyl)-2-methyl-2,3,4,5-tetrahydro-1H-pyrido[4,3-b]indole] showed an inhibition at 1 µM [1] of 85%, an inhibition at 1 µM [2] of 102% and an inhibition at 1 µM [3] of 48%. For the same compound, the inhibition at 1 µM [4] was 99%, the inhibition at 1 µM [5] was 101% and the inhibition at 1 µM [6] was 97%. For the same compound, the inhibition at 1 µM [7] was 95%.

`C/C(=C\n1c2c(c3cc(Cl)ccc31)CN(C)CC2)c1cccc(F)c1` [Compound 234, (E)-8-chloro-5-(2-(3-fluorophenyl)prop-1-enyl)-2-methyl-2,3,4,5-tetrahydro-1H-pyrido[4,3-b]indole] showed an inhibition at 1 µM [1] of 69%, an inhibition at 1 µM [2] of 101% and an inhibition at 1 µM [3] of 73%. For the same compound, the inhibition at 1 µM [4] was 94%, the inhibition at 1 µM [5] was 102% and the inhibition at 1 µM [6] was 100%. It also gave an inhibition at 1 µM [7] of 99%.

In the case of `C/C(=C\n1c2c(c3cc(C)ccc31)CN(C)CC2)c1ccc(O)cc1` [Compound 235, (E)-4-(1-(2,8-dimethyl-3,4-dihydro-1H-pyrido[4,3-b]indol-5(2H)-yl)prop-1-en-2-yl)phenol], the inhibition at 1 µM [1] is reported as 73%, the inhibition at 1 µM [2] is reported as 99% and the inhibition at 1 µM [3] is reported as 80%. It also gave an inhibition at 1 µM [4] of 96%, an inhibition at 1 µM [5] of 101% and an inhibition at 1 µM [6] of 98%. The inhibition at 1 µM [7] was 96%.

`COc1ccc(/C(C)=C/n2c3c(c4cc(C)ccc42)CN(C)CC3)cc1` [Compound 236, (E)-5-(2-(4-methoxyphenyl)prop-1-enyl)-2,8-dimethyl-2,3,4,5-tetrahydro-1H-pyrido[4,3-b]indole] showed an inhibition at 1 µM [1] of 20%, an inhibition at 1 µM [2] of 98% and an inhibition at 1 µM [3] of 76%. It also gave an inhibition at 1 µM [4] of 99%, an inhibition at 1 µM [5] of 102% and an inhibition at 1 µM [6] of 99%. For the same compound, the inhibition at 1 µM [7] was 93%.

Work on `C/C(=C/n1c2c(c3cc(Cl)ccc31)CN(C)CC2)c1ccccc1Cl` [Compound 237, (Z)-8-chloro-5-(2-(2-chlorophenyl)prop-1-enyl)-2-methyl-2,3,4,5-tetrahydro-1H-pyrido[4,3-b]indole] yielded an inhibition at 1 µM [1] of 88%, an inhibition at 1 µM [2] of 101% and an inhibition at 1 µM [3] of 45%. It also gave an inhibition at 1 µM [4] of 95%, an inhibition at 1 µM [5] of 98% and an inhibition at 1 µM [6] of 101%. The inhibition at 1 µM [7] was 100%.

With `C/C(=C\n1c2c(c3cc(Cl)ccc31)CN(C)CC2)c1ccccc1Cl` [Compound 238, (E)-8-chloro-5-(2-(2-chlorophenyl)prop-1-enyl)-2-methyl-2,3,4,5-tetrahydro-1H-pyrido[4,3-b]indole] the inhibition at 1 µM [1] was 58%, the inhibition at 1 µM [2] was 99% and the inhibition at 1 µM [3] was 81%. For the same compound, the inhibition at 1 µM [4] was 93%, the inhibition at 1 µM [5] was 99% and the inhibition at 1 µM [6] was 101%. It also gave an inhibition at 1 µM [7] of 98%.

`COc1ccc2c(c1)c1c(n2/C=C(/C)c2ccncc2)CCN(C)C1` [Compound 239, (Z)-8-methoxy-2-methyl-5-(2-(pyridin-4-yl)prop-1-enyl)-2,3,4,5-tetrahydro-1H-pyrido[4,3-b]indole] showed an inhibition at 1 µM [1] of 14%, an inhibition at 1 µM [2] of 104% and an inhibition at 1 µM [3] of 39%. The inhibition at 1 µM [4] was 28%, the inhibition at 1 µM [5] was 93% and the inhibition at 1 µM [6] was 93%. The inhibition at 1 µM [7] was 98%.

— US8906925B2, “Pyrido[4,3-B]indoles containing rigid moieties” (Medivation Technologies, Inc., priority 2008, dated 2014)
